Data from patent US8846601B2, “Melanocortin receptor-specific peptides” (Palatin Technologies, Inc., priority 2009, dated 2014).
Peptide text beside a SMILES is read from it.

target: hMC4-R (Homo sapiens (Human), UniProt P32245); assay: Competitive inhibition binding assay using [I125]-NDP-α-MSH, hMC4-R membranes; details: averaged; [I125]-NDP-α-MSH (values not marked *); read-out: MC4-R Ki
Protocol: A competitive inhibition binding assay is performed using membrane homogenates prepared from HEK-293 cells that express recombinant hMC4-R, hMC3-R, or hMC5-R, and from B-16 mouse melanoma cells (containing endogenous MC1-R). In some instances, HEK-293 cells that express recombinant hMC1-R were employed. In the examples that follow, all MC3-R, MC4-R and MC5-R values are for human recombinant receptors. […] Membrane homogenates were incubated with 0.2 nM (for hMC4-R) 0.4 nM (for MC3-R and MC5-R) or 0.1 nM (for mouse B16 MC1-R or hMC1-R) [I^125]-NDP-α-MSH (Perkin Elmer) and increasing concentrations of test peptides of the present invention in buffer containing 25 mM HEPES buffer (pH 7.5) with 100 mM NaCl, 2 mM CaCl2, 2 mM MgCl2, 0.3 mM 1,10-phenanthroline, and 0.2% bovine serum albumin. After incubation for 60 minutes at 37° C., the assay mixture was filtered and the membranes washed three times with ice-cold buffer. Filters were dried and counted in a gamma counter for bound radioactivity. […] Maximal specific binding (100%) was defined as the difference in radioactivity (cpm) bound to cell membranes in the absence and presence of 1 μM NDP-α-MSH. […] Each assay was conducted in triplicate and the actual mean values are described, with results less than 0% reported as 0%. Ki values for test peptides of the present invention were determined using Graph-Pad Prism® curve-fitting software.

Chain of hMC4-R (P32245 whole entry): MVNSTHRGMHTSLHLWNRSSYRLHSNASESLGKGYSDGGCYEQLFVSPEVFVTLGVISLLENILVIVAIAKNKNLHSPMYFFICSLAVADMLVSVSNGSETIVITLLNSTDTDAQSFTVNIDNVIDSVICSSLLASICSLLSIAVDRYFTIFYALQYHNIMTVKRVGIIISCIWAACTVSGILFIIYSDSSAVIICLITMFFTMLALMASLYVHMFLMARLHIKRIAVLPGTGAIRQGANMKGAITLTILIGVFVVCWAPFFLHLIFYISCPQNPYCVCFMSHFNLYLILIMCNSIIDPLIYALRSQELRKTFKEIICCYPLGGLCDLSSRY

Row | SMILES | Ki [µM]
1 | CC(=O)N[C@@H](CCCNC(=N)N)C(=O)N[C@H]1CCCC(=O)NCC[C@@H](C(N)=O)NC(=O)[C@H](Cc2c[nH]c3ccccc23)NC(=O)[C@H](CCCNC(=N)N)NC(=O)[C@@H](Cc2ccccc2)NC(=O)[C@H](CCC(N)=O)NC1=O [compound 147, Ac-Arg-cyclo(hGlu-Gln- D-Phe-Arg-Trp-Dab)- NH2] | 0.02
2 | CC(=O)N[C@@H](CCCNC(=N)N)C(=O)N[C@H]1CCC(=O)NCCC[C@@H](C(=O)O)NC(=O)[C@H](Cc2c[nH]c3ccccc23)NC(=O)[C@H](CCCNC(=N)N)NC(=O)[C@@H](Cc2ccccc2)NC(=O)[C@H](Cc2c[nH]cn2)NC1=O [compound 82, Ac-Arg-cyclo(Glu-His- D-Phe-Arg-Trp-Orn)- OH] (HELM PEPTIDE1{[ac].R.E.H.[dF].R.W.[Orn]}$PEPTIDE1,PEPTIDE1,3:R3-8:R3$$$V2.0) | 0.004
3 | CC(=O)N[C@@H](CCCNC(=N)N)C(=O)N[C@H]1CCCC(=O)NCC[C@@H](C(N)=O)NC(=O)[C@H](Cc2c[nH]c3ccccc23)NC(=O)[C@H](CCCNC(=N)N)NC(=O)[C@@H](Cc2ccccc2)NC(=O)[C@H](CCS(C)(=O)=O)NC1=O [compound 145, Ac-Arg-cyclo(hGlu- Met(O2)-D-Phe-Arg- Trp-Dab)-NH2] (HELM PEPTIDE1{[ac].R.[O=C([C@H](CCCC(=O)[*:3])N[*:1])[*:2]].[CS(=O)(=O)CC[C@H](N[*:1])C(=O)[*:2]].[dF].R.W.[Dab].[am]}$PEPTIDE1,PEPTIDE1,3:R3-8:R3$$$V2.0) | 0.004
4 | CC(=O)N[C@@H](CCCNC(=N)N)C(=O)N[C@H]1CCNC(=O)CCC[C@@H](C(=O)O)NC(=O)[C@H](Cc2c[nH]c3ccccc23)NC(=O)[C@H](CCCNC(=N)N)NC(=O)[C@@H](Cc2ccccc2)NC(=O)[C@H](CCN)NC1=O [compound 136, Ac-Arg-cyclo(Dab-Dab- D-Phe-Arg-Trp-hGlu)- OH] | 0.035
5 | N=C(N)NCCC[C@H](NC(=O)CC1CCCCC1)C(=O)N[C@H]1CC(=O)NCCCC[C@@H](C(N)=O)NC(=O)[C@H](Cc2c[nH]c3ccccc23)NC(=O)[C@H](CCCNC(=N)N)NC(=O)[C@@H](Cc2ccccc2)NC(=O)[C@H](CCN)NC1=O [compound 139, Cyclohexylacetyl-Arg- cyclo(Asp-Dab-D-Phe- Arg-Trp-Lys)-NH2] | 0.001
6 | CC(=O)N[C@@H](CCCNC(=N)N)C(=O)N[C@H]1CC(=O)NCCCC[C@@H](C(N)=O)NC(=O)[C@H](Cc2c[nH]c3ccccc23)NC(=O)[C@H](CCCNC(=N)N)NC(=O)[C@@H](Cc2ccccc2)NC(=O)[C@H](Cc2cccc(C(N)=O)c2)NC1=O [compound 49, Ac-Arg-cyclo(Asp-Phe- (3-(C(═O)—NH2))-D-Phe- Arg-Trp-Lys)-NH2] | 0.015
7 | CC(=O)N[C@@H](CCCNC(=N)N)C(=O)N[C@H]1CC(=O)NCCCC[C@@H](C(N)=O)NC(=O)[C@H](Cc2c[nH]c3ccccc23)NC(=O)[C@H](CCCNC(=N)N)NC(=O)[C@@H](Cc2ccccc2)NC(=O)[C@H](CO)NC1=O [Peptide No. 3, Ac-Arg-cyclo(Asp-Ser- D-Phe-Arg-Trp-Lys)- NH2] | 0.172
8 | CC(=O)N[C@@H](CCCNC(=N)N)C(=O)N[C@H]1CC(=O)NCCCC[C@@H](C(=O)NC2CC2)NC(=O)[C@H](Cc2c[nH]c3ccccc23)NC(=O)[C@H](CCCNC(=N)N)NC(=O)[C@@H](Cc2ccccc2)NC(=O)[C@H](CCN)NC1=O [compound 122, Ac-Arg-cyclo(Asp-Dab- D-Phe-Arg-Trp-Lys)- NH-cyclopropyl] | 0.003
9 | CC(=O)N[C@@H](CCCNC(=N)N)C(=O)N[C@H]1CCCCNC(=O)C[C@@H](C(=O)O)NC(=O)[C@H](Cc2c[nH]c3ccccc23)NC(=O)[C@H](CCCNC(=N)N)NC(=O)[C@@H](Cc2ccccc2)NC(=O)[C@H](CCN)NC1=O [compound 131, Ac-Arg-cyclo(Lys-Dab- D-Phe-Arg-Trp-Asp)- OH] (HELM PEPTIDE1{[ac].R.K.[Dab].[dF].R.W.D}$PEPTIDE1,PEPTIDE1,3:R3-8:R3$$$V2.0) | 0.035
10 | CC(=O)N[C@@H](CCCNC(=N)N)C(=O)N[C@H]1CCCNC(=O)CC[C@@H](C(N)=O)NC(=O)[C@H](Cc2c[nH]c3ccccc23)NC(=O)[C@H](CCCNC(=N)N)NC(=O)[C@@H](Cc2ccccc2)NC(=O)[C@H](Cc2c[nH]cn2)NC1=O [compound 75, Ac-Arg-cyclo(Orn-His- D-Phe-Arg-Trp-Glu)- NH2] (HELM PEPTIDE1{[ac].R.[Orn].H.[dF].R.W.E.[am]}$PEPTIDE1,PEPTIDE1,3:R3-8:R3$$$V2.0) | 0.0006
11 | CC(=O)N[C@@H](CCCNC(=N)N)C(=O)N[C@H]1CC(=O)NCCCC[C@@H](C(=O)O)NC(=O)[C@H](Cc2c[nH]c3ccccc23)NC(=O)[C@H](CCCNC(=N)N)NC(=O)[C@@H](Cc2ccccc2)NC(=O)[C@@H]2C[C@@H](Cc3ccccc3)CN2C1=O [compound 55, Ac-Arg-cyclo(Asp- Pro(Bn)-D-Phe-Arg- Trp-Lys)-OH] | 0.012
12 | CC(=O)N[C@@H](CCCNC(=N)N)C(=O)N[C@H]1CC(=O)NCCCC[C@@H](C(N)=O)NC(=O)[C@H](Cc2c[nH]c3ccccc23)NC(=O)[C@H](CCCNC(=N)N)NC(=O)[C@@H](Cc2ccccc2)NC(=O)CN(C)C1=O [compound 63, Ac-Arg-cyclo(Asp-Sar- D-Phe-Arg-Trp-Lys)- NH2] | 0.015
13 | CC(=O)N[C@@H](CCCNC(=N)N)C(=O)N[C@H]1CC(=O)NCCCC[C@@H](C(=O)O)NC(=O)[C@H](Cc2c[nH]c3ccccc23)NC(=O)[C@H](CCCNC(=N)N)NC(=O)[C@@H](Cc2ccccc2)NC(=O)[C@@H]2C[C@@H](OCc3ccccc3)CN2C1=O [compound 54, Ac-Arg-cyclo(Asp- Hyp(Bzl)-D-Phe-Arg- Trp-Lys)-OH] | 0.003
14 | N=C(N)NCCC[C@H](NC(=O)Cc1ccccc1)C(=O)N[C@H]1CC(=O)NCCCC[C@@H](C(N)=O)NC(=O)[C@H](Cc2c[nH]c3ccccc23)NC(=O)[C@H](CCCNC(=N)N)NC(=O)[C@@H](Cc2ccccc2)NC(=O)[C@H](CCN)NC1=O [compound 140, Phenylacetyl-Arg- cyclo(Asp-Dab-D-Phe- Arg-Trp-Lys)-NH2] | 0.002
15 | CC(=O)N[C@@H](CCCNC(=N)N)C(=O)N[C@H]1CCC(=O)NCCC[C@@H](C(=O)O)NC(=O)[C@H](Cc2c[nH]c3ccccc23)NC(=O)[C@H](CCCNC(=N)N)NC(=O)[C@@H](Cc2ccccc2)NC(=O)[C@H](CCCN)NC1=O [compound 90, Ac-Arg-cyclo(Glu-Orn- D-Phe-Arg-Trp-Orn)- OH] | 0.009
16 | CC(=O)N[C@@H](CCCNC(=N)N)C(=O)N[C@H]1CC(=O)NCCCC[C@@H](C(N)=O)NC(=O)[C@H](Cc2c[nH]c3ccccc23)NC(=O)[C@H](CCCNC(=N)N)NC(=O)[C@@H](Cc2cccc3ccccc23)NC(=O)[C@H](Cc2c[nH]cn2)NC1=O [compound 19, Ac-Arg-cyclo(Asp-His- D-Nal 1-Arg-Trp-Lys)- NH2] | 0.003
17 | CC(=O)N[C@@H](CCCNC(=N)N)C(=O)N[C@H]1CC(=O)NCCCC[C@@H](C(N)=O)NC(=O)[C@H](Cc2c[nH]c3ccccc23)NC(=O)[C@H](CCCNC(=N)N)NC(=O)[C@@H](Cc2ccccc2)NC(=O)[C@H](Cc2ccc(C(N)=O)cc2)NC1=O [compound 50, Ac-Arg-cyclo(Asp- Phe(4-(C(═O)—NH2))-D- Phe-Arg-Trp-Lys)-NH2] | 0.03
18 | CC(=O)N[C@@H](CCCNC(=N)N)C(=O)N[C@H]1CC(=O)NCCCC[C@@H](C(N)=O)NC(=O)[C@H](Cc2c[nH]c3ccccc23)NC(=O)[C@H](CCCNC(=N)N)NC(=O)[C@@H](Cc2ccccc2)NC(=O)[C@H](CCC(N)=O)NC1=O [compound 57, Ac-Arg-cyclo(Asp-Gln- D-Phe-Arg-Trp-Lys)-OH] | 0.115
